“Also recorded” adds a separate entry of the source. Peptide text beside a SMILES is read from it. * marks the point of attachment. Cbz = O=C(OCc1ccccc1)*
What was measured:
NF-κB [1] = assay: NF-κB activation by CPT-11 (data not shown); assay type: cell-based
HT1080V cells = assay: Cell viability experiments, enhancement of TNF-induced cell killing by proteasome inhibitor; assay type: cell-based, human; conditions: dose-dependent, data not shown
From the text: The effect of a proteasome inhibitor on TNF-treated cells was investigated. Proteasome inhibitors of the peptide aldehyde category are potent inhibitors of NF-κB activation (Palombello et al., Cell 78:773 (1994); Chen et al., Genes Dev. 9:1586 (1995)). […] Cell viability experiments were used to monitor the effectiveness of MG132 in enhancing TNF-induced cell killing.

[2] = tested on: HT1080 fibrosarcoma cells; assay: Cell survival by crystal violet assay in HT1080V and HT1080I cells; assay type: cell-based, human
Experimental: HT1080V (open squares) and HT1080I cells (solid diamonds) were treated with TNFα (20 ng/ml) for varying times and surviving cells were quantified by crystal violet assay (Mehlen et al., EMBO J. 15:2695 (1996)). Data shown (FIG. 1A) are the mean of three independent experiments ±SD, and the percentage cell survival was defined as the relative number of TNF treated versus untreated cells.
HT1080V and HT1080I cells were preincubated with 10 ng/ml IL-1β (R & D Systems) for 5 hours (+Pre IL-1), or were left untreated. Cells were then treated with 10 μg/ml cycloheximide (CHX) and different concentrations of TNFα (0-50 ng/ml). Surviving cells were quantified by crystal violet assay (Mehlen et al., EMBO J. 15:2695 (1996)). […] Open squares represent HT1080V cells without IL-1 pretreatment; closed squares represent HT1080V cells pretreated with IL-1; circles represent HT1080I cells without IL-1 pretreatment; triangles represent HT1080I cells pretreated with IL-1.

NF-κB [3] = assay: Electrophoretic mobility-shift assay (EMSA) of NF-κB nuclear translocation in HT1080V and HT1080I cells; assay type: cell-based, human
Experimental: HT1080 fibrosarcoma cells were co-transfected with the pCMV empty vector to produce control cells HT1080V; HT1080 cells co-transfected with the pCMV vector containing a cDNA encoding the super-repressor IκBα and with the pCEP4 vector for hygromycin B selection (400 μg/ml) provided HT1080I cells that expressed the super-repressor IκBα.

[4] = tested on: HT1080V and HT1080I cells; assay: Cell viability of HT1080V and HT1080I cells treated with cytotoxic agent (data not shown); assay type: cell-based, human
Experimental: The present inventors' preliminary data additionally indicate that cell killing by vincristine is augmented by the inhibition of NF-κB (data not shown). HT1080V and HT1080I cells were treated with vincristine and cell viability was determined.

[5] = tested on: HT1080 fibrosarcoma cells; assay: TNF-induced apoptosis detected by TUNEL staining; assay type: cell-based, human; conditions: 50 ng/ml TNFα for 7 hr; HT1080V and HT1080I cells; FIG. 1B
Experimental: TNF-induced apoptosis was detected by TUNEL staining (Graeber et al., Nature 379:88 (1996)). HT1080V (V) and HT1080I (I) cells were untreated (−TNF) or stimulated (+TNF) with 50 ng/ml TNFα for 7 hr and fixed with 4% paraformaldehyde. The staining was done according to the manufacturer's instructions (Boehringer Mannheim).

CCc1c2c(nc3ccc(OC(=O)N4CCC(N5CCCCC5)CC4)cc13)-c1cc3c(c(=O)n1C2)COC(=O)[C@]3(O)CC [CPT-11, irinotecan]
Activation of NF-κB (NF-κB [1]): determined to activate NF-κB

CC(C)C[C@@H](C=O)NC(=O)[C@H](CC(C)C)NC(=O)[C@H](CC(C)C)NC(=O)OCc1ccccc1 [MG132, Z-leu-leu-leu-H] (Cbz-Leu-Leu-Leu-aldehyde)
Enhancement of TNF-induced killing (HT1080V cells): strongly enhanced TNF-induced killing of HT1080V cells

COc1cccc2c1C(=O)c1c(O)c3c(c(O)c1C2=O)C[C@@](O)(C(C)=O)C[C@@H]3O[C@H]1C[C@H](N)[C@H](O)[C@H](C)O1 [daunorubicin]
Cell survival after daunorubicin, HT1080I versus control cells ([2]; 0.1 to 2.0 μM for 24 hours, FIG. 3B): reduced in HT1080I cells

CN[C@@H]1C[C@H]2O[C@@](C)([C@@H]1OC)n1c3ccccc3c3c4c(c5c6ccccc6n2c5c31)C(=O)NC4 [staurosporine]
NF-κB nuclear translocation (EMSA) in control cells (NF-κB [3]; HT1080V cells, 1 μM daunorubicin or 50 nM staurosporine): did not activate NF-κB; also recorded: only slight nuclear translocation of NF-κB was evident
Apoptosis induced in IκBα expressing cells versus control ([4]; HT1080I cells, data not shown): not enhanced by the expression of IκBα

CC[C@]1(O)C[C@H]2CN(CCc3c([nH]c4ccccc34)[C@@](C(=O)OC)(c3cc4c(cc3OC)N(C=O)[C@H]3[C@@](O)(C(=O)OC)[C@H](OC(C)=O)[C@]5(CC)C=CCN6CC[C@]43[C@@H]65)C2)C1 [vincristine]
Cell killing in HT1080I versus HT1080V cells ([4]; preliminary data, not shown): Cell killing in HT1080I cells was enhanced compared to that in HT1080V cells

IL-1: an activator of NF-κB that does not initiate apoptosis
Effect of pre-treatment on TNFα+CHX-induced apoptosis in HT1080V cells ([2]; 10 ng/ml IL-1β for 5 hours, then 10 μg/ml CHX and TNFα 0-50 ng/ml, FIG. 2A): inhibited TNFα+CHX-induced apoptosis in HT1080V cells
Effect of pre-treatment on CHX+TNF-induced killing in HT1080I cells ([2]; HT1080I cells, NF-κB activation blocked, FIG. 2A): no protective effect

TNFα
Apoptotic morphology by TUNEL staining [5]: only super-repressor IκBα expressing cells showed apoptotic morphology
Cell survival after TNFα, HT1080I versus HT1080V ([2]; TNFα 20 ng/ml, varying times, FIG. 1A): Cell survival was reduced in HT1080I cells compared to HT1080V controls

B1: super-repressor IκBα: mutant IκBα with serine to alanine mutations at residues 32 and 36; binds NF-κB and inhibits nuclear translocation (protein, UniProt P25963 1-317, looked up, variant S32A S36A)
NF-kappa-B inhibitor alpha: MFQAAERPQEWAMEGPRDGLKKERLLDDRHDAGLDAMKDEEYEQMVKELQEIRLEPQEVPRGSEPWKQQLTEDGDSFLHLAIIHEEKALTMEVIRQVKGDLAFLNFQNNLQQTPLHLAVITNQPEIAEALLGAGCDPELRDFRGNTPLHLACEQGCLASVGVLTQSCTTPHLHSILKATNYNGHTCLHLASIHGYLGIVELLVSLGADVNAQEPCNGRTALHLAVDLQNPDLVSLLLKCGADVNRVTYQGYSPYQLTWGRPSTRIQQQLGQLTLENLQMLPESEDEESYDTESEFTEFTEDELPYDDCVFGGQRLTL
Effect on TNF-stimulated NF-κB nuclear translocation (EMSA) (NF-κB [3]; expressed in HT1080I cells, data not shown): efficiently blocked TNF-stimulated NF-κB nuclear translocation

Reference: patent US7700543B2, “Use NF-κB inhibition in combination therapy for cancer” (The University of North Carolina at Chapel Hill, priority 1997, dated 2010)
